The values that follow are results of earlier work, collected in US20230157963A1, “SOLID ORAL BEADS OF FUNCTIONAL INGREDIENTS AND METHODS OF MAKING THE SAME” (Nulixir Inc., priority 2021, published 2023).

The conditions of the data set: categorization at pH=7 unless stated otherwise; reference phases water and n-octanol.
In the case of `COc1cc2c(c(OC)c1OC)-c1c(cc3c(c1OC)OCO3)CC(C)C(C)C2` (single isomer, unassigned; (-)) [(−)-schisandrin B], the lipophilicity (log P) is about 4. As for `COc1cc(/C=C/c2ccccc2)oc(=O)c1` [5,6-dehydrokawain], the lipophilicity (log P) is recorded as about 2.9. For `COC1=CC(=O)OC(/C=C/c2ccc(OC)cc2)C1` (stereo not drawn) [5,6-dihydroyangonin], the “log P” value is about 2.5.

Regarding `CC1=C(CO)C(=O)O[C@@H]([C@@H](C)[C@H]2CC[C@H]3[C@@H]4C[C@H](Cl)[C@]5(O)[C@@H](O)C=CC(=O)[C@]5(C)[C@H]4CC[C@]23C)C1` [6a-chloro-5b-hydroxywithaferin A], the lipophilicity (log P) is recorded as about 3.2. As to `COC1=CC(=O)O[C@@H](CCc2ccc3c(c2)OCO3)C1` [7,8-dihydromethysticin], the lipophilicity (log P) is on record as about 2.2.

As to `COc1ccc(CCc2cc(OC)cc(=O)o2)cc1` [7,8-dihydroyangonin], the “log P” value is about 2.9. With `COc1cc(/C=C\c2ccc(OC)c(O)c2)oc(=O)c1` [11-hydroxyyangonin], the “log P” value is about 2.2. On to `COc1cc2c(c(OC)c1OC)-c1c(cc(OC)c(OC)c1OC)C[C@](C)(O)[C@@H](C)C2` [(+)-schisandrin], for which the “log P” value is about 5.

With `COc1cc2c(c(OC)c1OC)-c1c(cc(OC)c(OC)c1OC)C[C@H](C)[C@H](C)C2` [(−)-schisandrin A], the “log P” value was about 3.6.

With `COc1c2c(cc3c1-c1c(cc4c(c1OC)OCO4)C[C@H](C)[C@H](C)C3)OCO2` [(−)-schisandrin C], the lipophilicity (log P) is given as about 3.5.

In the case of `CC(C)=C[C@@H]1CO[C@]23C[C@]4(CO2)[C@H](CC[C@@H]2[C@@]5(C)CC[C@H](O[C@@H]6OC[C@H](O)[C@H](O[C@@H]7O[C@H](CO)[C@@H](O)[C@H](O)[C@H]7O)[C@H]6O[C@@H]6O[C@@H](CO)[C@H](O)[C@H]6O)C(C)(C)[C@@H]5CC[C@]24C)[C@H]3[C@@]1(C)O` [bacopasaponin C], the “log P” value was about 2.

For the compound `CC(C)=C[C@H]1C[C@](C)(O)[C@@H]2[C@H]3CC[C@@H]4[C@@]5(C)CC[C@H](O[C@@H]6OC[C@H](O)[C@H](O[C@@H]7O[C@H](CO)[C@@H](O)[C@H](O)[C@H]7O)[C@H]6O[C@@H]6O[C@@H](CO)[C@H](O)[C@H]6O)C(C)(C)[C@@H]5CC[C@@]4(C)[C@@]34CO[C@@]2(C4)O1` [bacopaside X], the log partition coefficient (log P) was about 2.2. `CC(C)=C[C@H]1C[C@](C)(O)[C@H]2[C@H]3CC[C@@H]4[C@@]5(C)CC[C@H](O[C@@H]6O[C@H](CO)[C@@H](O)[C@H](O[C@@H]7O[C@H](CO)[C@@H](O)[C@H](O)[C@H]7O)[C@H]6O[C@@H]6O[C@@H](CO)[C@H](O)[C@H]6O)C(C)(C)[C@@H]5CC[C@@]4(C)[C@@]34CO[C@@]2(C4)O1` [bacoside A3]: the “log P” value is listed as about 2.1.

Consider `CC(C)=CCC[C@](C)(O[C@@H]1O[C@H](CO[C@@H]2O[C@H](CO)[C@@H](O)[C@H](O)[C@H]2O)[C@@H](O)[C@H](O)[C@H]1O)[C@H]1CC[C@]2(C)[C@@H]1[C@H](O)C[C@@H]1[C@@]3(C)CC[C@H](O[C@@H]4O[C@H](CO)[C@@H](O)[C@H](O)[C@H]4O[C@@H]4O[C@H](CO)[C@@H](O)[C@H](O)[C@H]4O)C(C)(C)[C@@H]3CC[C@]12C` [ginsenoside rb1], for which the “log P” value is on record as about −1. With `CC(C)=CCC[C@](C)(O[C@@H]1O[C@H](CO)[C@@H](O)[C@H](O)[C@H]1O)[C@H]1CC[C@]2(C)[C@@H]1[C@H](O)C[C@@H]1[C@@]3(C)CC[C@H](O)C(C)(C)[C@@H]3[C@@H](O[C@@H]3O[C@H](CO)[C@@H](O)[C@H](O)[C@H]3O)C[C@]12C` [ginsenoside rg1], the lipophilicity (log P) was about 0.8. Consider `COc1ccc(C23C=CC(O)CC2N(C)CC3)cc1OC` (stereo not drawn) [mesembrenol], for which the “log P” value was about 2.4. On to `COc1ccc([C@@]23C=CC(=O)C[C@@H]2N(C)CC3)cc1OC` [mesembrenone], for which the “log P” value was about 1.3. On to `COc1ccc([C@@]23CCC(=O)C[C@@H]2N(C)CC3)cc1OC` [mesembrine], for which the “log P” value is listed as about 1.5. Turning to `COc1nc2c(c(=O)n1C)n(C)c(=O)n2C` [methylliberine], the “log P” value is about −0.083. For `CC(=O)OC1C=CC(=O)N(C(=O)CCc2ccccc2)C1` (stereo not drawn) [pipermethystine], the “log P” value is about 1.8. As for `COc1cc([C@H]2Oc3cc(O)c4c(=O)c(O)c(-c5ccc(O)cc5)oc4c3O[C@@H]2CO)ccc1O` [rhodiolin], the “log P” value is about 2. For the compound `OC[C@H]1O[C@@H](OCCc2ccc(O)cc2)[C@H](O)[C@@H](O)[C@@H]1O` [rhodosin, salidroside], the “log P” value is recorded as about −1.

Turning to `COc1cc2c(c(OC)c1OC)-c1c(cc(OC)c(OC)c1OC)C[C@](C)(O)[C@@H](C)C2` [schisandrol A], the “log P” value is recorded as about 3.4. As for `N#C[C@@]1(O[C@@H]2O[C@H](CO)[C@@H](O)[C@H](O)[C@H]2O)C=C[C@@H](O)C1` [tetraphyllin B], the “log P” value is about −2.5. Take (R)-kawain: the log partition coefficient (log P) was about 2.7. For the compound bacopaside B, the “log P” value is about 2.8. hericerin: the “log P” value is on record as about 6.4. herinacine A: the “log P” value is about 2.5. Turning to schisandroside C, the “log P” value is reported as about 1.6. tortuosomine: the lipophilicity (log P) is listed as about 3.

By log P is commonly meant a log measure of how a compound divides between an organic and an aqueous phase.
